Test results as given in PubChem BioAssay (NCI).
“And” between values parts separate entries of the source, which are not always exact repeats. Equal values may be shown once.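 Where inhibition never reached the appropriate level, the endpoint shown equals the highest concentration tested. Otherwise, values were interpolated linearly from a five-concentration, 48-hour dose response in 96-well plates. GI50 is the concentration that inhibits growth by half. TGI: concentration producing complete growth inhibition.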

Key:
Experiment in all cases: inhibition of tumour cell growth, NCI panel, 48 h
KM12 colon = test system: KM12 colon
SNB-75 CNS = test system: SNB-75 CNS
CAKI-1 renal = test system: CAKI-1 renal
ACHN renal = test system: ACHN renal
RPMI-8226 leukemia = test system: RPMI-8226 leukemia
HCT-15 colon = test system: HCT-15 colon
MOLT-4 leukemia = test system: MOLT-4 leukemia
HOP-62 NSCLC = test system: HOP-62 NSCLC
PC-3 prostate = test system: PC-3 prostate
MCF7 breast = test system: MCF7 breast

Structure (SMILES)	GI50 (KM12 colon)	TGI (KM12 colon)	GI50 (SNB-75 CNS)	TGI (SNB-75 CNS)	GI50 (CAKI-1 renal)	TGI (CAKI-1 renal)	GI50 (ACHN renal)	TGI (ACHN renal)	GI50 (RPMI-8226 leukemia)	TGI (RPMI-8226 leukemia) [µM]	GI50 (HCT-15 colon) [µM]	TGI (HCT-15 colon)	GI50 (MOLT-4 leukemia) [µM]	TGI (MOLT-4 leukemia)	GI50 (HOP-62 NSCLC)	TGI (HOP-62 NSCLC)	GI50 (PC-3 prostate)	TGI (PC-3 prostate)	GI50 (MCF7 breast)	TGI (MCF7 breast)
CC(C)(C)CC(C)(C)c1ccc(O)c(Cc2ccc(Cl)cc2Cl)c1	1.63 µM	3 µM	1.69 µM	3.08 µM	1.31 µM	2.58 µM	1.68 µM	3.05 µM	1.24 µM	3.66	1.74	3.18 µM	1.66	3.44 µM	1.42 µM	2.72 µM	1.54 µM	2.88 µM	1.52 µM	2.85 µM
Cn1cc(-c2nc(-c3c[nH]c4ncccc34)cs2)c2ccccc21	0.975 µM	26.7 µM	18.5 µM	> 100 µM	25.5 µM	> 100 µM	31.7 µM	> 100 µM	4.6 µM	> 100	1.47	> 100 µM	23	> 100 µM	19.7 µM	68.4 µM	16.4 µM	> 100 µM	0.401 µM	26.1 µM
O=C1CC(c2ccccc2)Cc2nc3ccc(Br)cc3cc21 (stereo unspecified)	0.368 µM	> 37.7 µM	0.187 µM	> 90.1 µM	0.459 µM	> 100 µM	0.498 µM	> 100 µM	2.92 µM	> 100	0.476	> 100 µM	0.0639	> 100 µM	0.526 µM	> 100 µM	0.296 µM	> 100 µM	2.75 µM	> 100 µM
COc1cc(/C=C/c2cc(/C=C/c3ccc(O)c(OC)c3)n(C(=O)Nc3ccccc3Cl)n2)ccc1O	0.326 µM	1.5 µM	0.259 µM	0.959 µM	0.222 µM	1.21 µM	0.344 µM	5.35 µM	0.321 µM	1.55	0.332	4.15 µM	0.269	1.2 µM	0.471 µM	1.78 µM	0.392 µM	2.22 µM	0.29 µM	1.4 µM
Cn1c2c(c3ccccc31)CCN(CCCCN1CCN(c3ccccc3)CC1)C2=O		> 89.9 µM		> 100 µM		98.5 µM		> 100 µM		> 92.3		> 100 µM		> 78 µM		> 100 µM		86.6 µM		63.2 µM
CC(C)(C)c1cc(NC(=O)Nc2ccc(-c3cn4c(n3)sc3cc(OCCN5CCOCC5)ccc34)cc2)no1	0.532 µM and 0.496 µM and 0.438 µM	27.3 µM and 14.6 µM and > 10 µM	1.41 µM and 2.38 µM and 1.94 µM	6.52 µM and 19.1 µM and > 10 µM	10.9 µM and 2.6 µM and 6.93 µM	31.9 µM and 15.3 µM and > 10 µM	3.48 µM and 1.22 µM and 8.06 µM	18.1 µM and 13.2 µM and > 10 µM	0.363 µM and 0.16 µM and 0.34 µM			> 91.9 µM and 14.8 µM and > 10 µM		> 100 µM and 23.6 µM and > 10 µM	1.88 µM and 1.19 µM and 2.29 µM	6.57 µM and 10 µM and > 10 µM	4.63 µM and 0.771 µM and 5.06 µM	19.1 µM and 14.2 µM and > 10 µM	2.04 µM and 0.357 µM and 1.41 µM	23.3 µM and 13.3 µM and > 10 µM
O=C(O)c1cc(=O)cc(C(=O)O)o1	> 100 µM	> 100 µM	> 100 µM	> 100 µM	> 100 µM	> 100 µM	> 100 µM	> 100 µM	> 100 µM	> 100	> 100	> 100 µM	> 100	> 100 µM	> 100 µM	> 100 µM	> 100 µM	> 100 µM	> 100 µM	> 100 µM
COC(=O)c1cc2oc(/C=C3/SC(=S)N(N)C3=O)cc2n1Cc1ccccc1	6.05 µM	> 29.7 µM	0.887 µM	11.3 µM	2.98 µM	20.6 µM	7.08 µM	25.8 µM	> 27.5 µM	> 100	7.65	> 29.9 µM	4.23	> 100 µM	6.59 µM	25.6 µM	9.61 µM	> 31.9 µM	1.5 µM	6.93 µM
Oc1ccc2c3c1OC1c4[nH]ncc4C[C@H]4[C@@H](C2)N(CC2CC2)CC[C@]314 (stereo partly specified)		> 100 µM		> 100 µM		> 100 µM		> 100 µM		> 100		> 100 µM		> 100 µM		> 100 µM		> 100 µM		> 100 µM
COc1cc(N2C(=O)[C@H](c3ccccc3)C2c2ccc(SC)cc2)cc(OC)c1OC (stereo partly specified)	0.0352 µM	> 100 µM	0.04 µM	> 100 µM	0.0463 µM	> 100 µM	0.0454 µM	> 100 µM	0.0416 µM	7.68	0.034	> 100 µM	0.04	> 100 µM	0.0788 µM	> 100 µM	0.0428 µM	> 100 µM	0.0352 µM	> 100 µM
CCOC(=O)C1=C(C)NC(=O)NC1CN1C(=O)c2ccccc2C1=O (stereo unspecified)	> 100 µM	> 100 µM	> 100 µM	> 100 µM	> 100 µM	> 100 µM	> 100 µM	> 100 µM	> 100 µM	> 100	> 100	> 100 µM	> 100	> 100 µM	> 100 µM	> 100 µM	> 100 µM	> 100 µM	> 100 µM	> 100 µM
CC1(C)N=C(N)N=C(N)N1c1ccc(Cl)cc1	6.68 µM	> 100 µM	8.16 µM	> 100 µM	> 100 µM	> 100 µM	9.55 µM	> 100 µM	> 100 µM	> 100	18.7	> 100 µM	62.3	> 100 µM	3.54 µM	> 100 µM	6.07 µM	> 100 µM	4.88 µM	> 100 µM
C=CC(=O)N1C[C@@H]2CCOc3c(Cl)c(-c4c(O)cccc4F)c(F)c4ncnc(c34)N2C[C@H]1C	14.7 µM	36.1 µM	10.8 µM	23.5 µM	2.67 µM	19.4 µM	10.5 µM	22.2 µM	5.96 µM	> 100	11.8	26.6 µM	5.79	> 100 µM	0.0507 µM	25.5 µM	17.9 µM	> 100 µM	14.1 µM	34.5 µM
C=C1C(=O)O[C@H]2[C@H](OC(C)=O)[C@@H](C)CCCC3(C)OC3CCC3(CO3)[C@H](O)C[C@@H]12 (stereo partly specified)	13.6 µM	28.5 µM	47 µM	> 100 µM	12.1 µM	27.8 µM	10.4 µM	22.3 µM	1.38 µM	4.08	10.2	21.8 µM	1.73	4.14 µM	21.4 µM	43 µM	4.4 µM	18 µM	5.02 µM	28.7 µM
CN(C)CC(=O)Nc1ccc2ncnc(Nc3ccc(Oc4cccc(C(F)(F)F)c4)c(Cl)c3)c2c1	1.91 µM	4 µM	1.33 µM	2.82 µM	1.71 µM	7.54 µM	1.13 µM	2.49 µM	1.9 µM	5.51	1.48	3.1 µM	2.14	6.36 µM	2.09 µM	5.71 µM	1.82 µM	4.5 µM	1.53 µM	3.02 µM
CC(C)(C)c1cc(/C=N/NC(=O)c2ccccc2NC(=O)c2cccs2)c(O)c(C(C)(C)C)c1	0.831 µM	> 100 µM	13.1 µM	> 100 µM	0.536 µM	> 100 µM	0.413 µM	19.2 µM	1.05 µM	14	0.22	> 100 µM	0.872	20.6 µM	0.779 µM	21.6 µM	2.8 µM	> 100 µM	0.485 µM	> 100 µM
Cn1c(=O)nc2n(-c3ccc(Cl)cc3)c3cc(Cl)ccc3nc-2c1=O		25.6 µM		14.8 µM		20.7 µM		25.5 µM		22.8		3.69 µM		16.5 µM		33.2 µM		24.1 µM		2.8 µM
O=c1c2ccccc2c(/C=N\NC2=NCCN2)c2oc3ccccc3n12	16.7 µM	34.4 µM	19.4 µM	42 µM	27.2 µM	> 100 µM	14.2 µM	29.9 µM	28.6 µM	> 100	14.7	62.1 µM	23.8	> 100 µM	28.6 µM	> 100 µM	23 µM	45.6 µM	18.5 µM	40.8 µM
O=c1cnnc(N/N=C/c2ccccc2O)[nH]1	2.85 µM	> 100 µM	8.03 µM	87.3 µM	3.01 µM	> 100 µM	1.19 µM	> 100 µM	1.23 µM	> 72.9	0.539	> 100 µM	0.973	> 100 µM	6.01 µM	53.7 µM	2.99 µM	> 100 µM	0.0396 µM	
C#Cc1cccc(Nc2ncnc3ccc(OCCCCNCCS(C)(=O)=O)cc23)c1	9.74 µM	> 25 µM	10.7 µM	> 25 µM	2.79 µM	> 25 µM	0.945 µM	> 25 µM	4.59 µM	15.3	7.41	> 25 µM	7.97	21.4 µM	11.5 µM	> 25 µM	9.55 µM	> 25 µM	9.5 µM	> 25 µM
CC1=C(C)C(=O)O[C@@H]([C@](C)(O)[C@]2(O)CC[C@@]3(O)[C@@H]4C[C@H](O)[C@]5(O)[C@@H](O)C=CC(=O)[C@]5(C)[C@H]4CC[C@]23C)C1		> 100 µM		> 100 µM		> 100 µM		> 100 µM		> 100		> 100 µM		> 100 µM		> 100 µM		> 100 µM		> 100 µM
O=C(C=P(c1ccccc1)(c1ccccc1)c1ccccc1)CCl	1.94 µM	5.09 µM	1.19 µM	7.57 µM	0.98 µM	2.81 µM	0.569 µM	1.94 µM	0.965 µM	4.45	0.881	4.21 µM	1.59	6.85 µM	2.62 µM	7.93 µM	1.54 µM	3.34 µM	0.403 µM	1.93 µM
CC(C)(c1ccccc1)c1cc(O)c(C(C)(C)c2ccccc2)cc1O	1.96 µM	10.8 µM	1.51 µM	11.5 µM	1.71 µM	11.4 µM	2.7 µM	12.2 µM	1.37 µM	14.3	2.35	10.1 µM	1.72	7.82 µM	3.06 µM	13.4 µM	1.96 µM	10.9 µM	2.1 µM	11.2 µM
COc1ccc(C(=NN=C(N)N)c2ccc(OC)cc2)cc1	2.31 µM	8.41 µM	1.84 µM	11.3 µM	5.75 µM	21 µM	3.49 µM	13.3 µM	5.46 µM	21.8	4.73	19.9 µM	3.89	16.7 µM	3.9 µM	15.5 µM	3.04 µM	14.4 µM	2.89 µM	12.4 µM
COc1cc([N+](=O)[O-])c(OC)cc1-c1nc2sc(C)cn2c1/C(N)=N/C(=N)N	2.24 µM	11.1 µM	> 100 µM	> 100 µM	> 100 µM	> 100 µM	50.2 µM	> 100 µM	84.1 µM	> 100	> 100	> 100 µM	> 100	> 100 µM	71.3 µM	> 100 µM	45.9 µM	> 100 µM	3.92 µM	> 100 µM
O=C1C=CC(=C(c2ccccc2)c2ccc(O)cc2)C=C1		41.5 µM		38.2 µM		32.1 µM		39.2 µM		> 100		35.3 µM		> 100 µM		> 100 µM		47.5 µM		37.1 µM
